Data from BigSolDB 2.1.

CC#CCn1c(N2CCC[C@@H](N)C2)nc2c1c(=O)n(Cc1nc(C)c3ccccc3n1)c(=O)n2C
solubility (mole fraction)
Settings | 273.15 K | 278.15 K | 283.15 K | 288.15 K | 293.15 K | 298.15 K | 303.15 K | 308.15 K | 313.15 K
in acetonitrile | 0.000425 | 0.000546 | 0.000675 | 0.000821 | 0.000974 | 0.00114 | 0.00132 | 0.00151 | 0.00172
in ethanol | 0.000511 | 0.000637 | 0.000782 | 0.000947 | 0.00113 | 0.00137 | 0.00163 | 0.00194 | 0.00231
in isopropanol | 0.000227 | 0.000282 | 0.000343 | 0.000421 | 0.000496 | 0.000578 | 0.000668 | 0.000765 | 0.000874
in methanol | 0.00061 | 0.000778 | 0.00097 | 0.00121 | 0.00148 | 0.00179 | 0.00213 | 0.00254 | 0.00302
in n-propanol | 0.000342 | 0.000403 | 0.000478 | 0.000573 | 0.00067 | 0.000794 | 0.00093 | 0.00108 | 0.00125
